Measurements taken from US20180214519A1, “COMBINATION THERAPIES FOR MODULATION OF HISTONE METHYL MODIFYING ENZYMES” (Constellation Pharmaceuticals, Inc., priority 2015, published 2018).
Read-outs that look alike come from different tables or passages of the source.

Assays:
[1] = test system: PC9 cells; experiment: RNA-sequencing and gene set enrichment analysis in PC9 cells; format: cell-based; settings: 2.5 μM pre-treatment 8 days then 1 μM erlotinib; compared to DMSO pre-treated/erlotinib acutely treated cells
Text: For RNA sequencing (RNA-seq) experiments, RNA was submitted to Ocean Ridge Biosciences (Palm Beach Gardens, Fla.) for quality control, library preparation and sequencing. Samples were processed as per the vendor's protocols (http://www.oceanridgebio.com/rna-sequencing.html). Data was processed as previously described (ibid).
Experimental gene lists pre-ranked by differential expression were compared against gene sets in the Molecular Signature Database (MSigDB), v4.0 (http://www.broadinstitute.org/gsea/msigdb/index.jsp). GSEA analyses were run using the weighted scoring option, meandiv normalization, and excluding MSigDB gene sets with more than 1500 or fewer than 15 member genes.
For transcriptomic analysis of PC9 cells, cells were pretreated for 8 days with 2.5 μM CPI-360, with one splitting event and reapplication of fresh drug at day 4. On day 8, without splitting, 0.1% (v/v) DMSO or 1 μM erlotinib was added directly to each vessel, mixed, and incubated for 6 or 24 hours before harvesting. Cells were harvested by aspiration of media, and direct application of buffer RLT to the cell culture plate. RNA was purified as described above.
PC9 cells were pre-treated with 2.5 μM Inhbitor 2 or DMSO for 8 days, with splitting, re-seeding and compound re-fresh at day 4. […] RNA was extracted, and analyzed via RNA-sequencing, then gene set enrichment analysis using msigdb v4.0 (all categories). […]

[2] = test system: PC9 NucRed cells
Protocol: The non-small cell lung cancer (NSCLC) cell line PC9 was transduced with virus expressing nuclear-restricted RFP (NucRed, Essen Biosciences NucLight), and selected with zeocin (Invivogen). […] Every 3-4 days, media was removed, cells were washed with PBS, and fresh growth media containing 1 μM erlotinib was added. DTPs are defined as cells maintaining red fluorescence, while remaining in a non-proliferative state. After a period of time, DTPs regain proliferative capacity, at which point they are deemed drug tolerant expanded persisters (DTEPs) (ibid). Cells were maintained in 12 well dishes in an Incucyte ZOOM (Essen Biosciences) positioned in a humidified tissue culture incubator for the length of each experiment. Whole well phase and fluorescent images were obtained every 12 hours by the Incucyte ZOOM, and cell number quantified using an automated algorithm defined from a training set of images that identifies red fluorescent signal (positive signal pseudocolored blue in figures). In each experiment, relative cell number is quantitated by dividing cell number at each time point by the initial cell number for each well. In some instances, PC9 NucRed cells were pretreated with EZH2 inhibitors, before counting and reseeding at 5×10^4 cells per well for DTP generation assays as described above.
48 hours later, 1 μM erlotinib was added to the cells, and images were obtained every 12 hours via the Incucyte imaging system. […] FIG. 15c is a schematic of experimental design for FIG. 15d and FIG. 15e PC9 NucRed cells were pre-treated with Inhbitor 1 as in FIG. 15a and FIG. 15b, however after 48 hours, were treated with 0.1% DMSO instead of erlotinib.
Media with fresh compounds was changed every 3-4 days. Phase and fluorescent images obtained every 12 hours with Incucyte imaging platform. Cell number determined by red fluorescent nuclei detection by Incucyte.

[3] = test system: KARPAS-422 cells; experiment: Cell viability assay (Cell Titer Glo) in KARPAS-422 cells; format: cell-based; settings: EZH2 mutant-containing DLBCL cell line KARPAS-422; viability monitored at day 4, day 8 and day 12
Protocol: For suspension cell lines, cells were seeded at their pre-determined optimal seeding density in a 96 well dish in a volume of 70-90 μl, depending on the number of compounds under investigation in a single assay (i.e. single agent assay versus combination assay). A 10× stock solution of the highest desired concentration of the compound of interest was made in growth media. In parallel, a solution containing the same % of diluent as the 10× compound concentration was made for each compound under investigation, also in growth media. Compound was diluted serially in the diluent/growth media solution, and 10 μl of 10× drug was added to the relevant wells of the 96 well dish containing cells. […] Cells were cultured in the presence of compound for 4 days, at which point 100 μl growth media was added, cells were triturated, and the cell density of the diluent only control treatment was determined. A split ratio was determined based on this density, such that the new cell density of diluent treated cells after splitting would match the original cell density from day 0. […] 50 μl CTG reagent was added to all wells containing cells that remained in the original 96 well dish, followed by a 30 min incubation on an orbital shaker, before a luminescence reading was obtained on a Perkin-Elmer Envision. […]

[4] = pre-treatment 4 days, then 1 μM erlotinib, compared to erlotinib only treated cells

## COc1cc(C)[nH]c(=O)c1CNC(=O)c1c(C)n([C@H](C)C2CCOCC2)c2ccccc12 [Inhibitor 2]
[1]
  altered pathways (gene set enrichment analysis): 3 out of the top 5 altered pathways are interferon-related pathways

## CCS(=O)(=O)N1CCC([C@@H](C)n2c(C)c(C(=O)NCc3c(OC)cc(C)[nH]c3=O)c3ccccc32)CC1 [Inhibitor 1]
[2]; 5 μM pre-treatment followed by acute 1 μM erlotinib, compared to DMSO pretreatment, acute erlotinib treatment
  reduction in cell number: 80%
[2]; 5 μM pretreatment for 4 days, then acute DMSO treatment, compared to DMSO pretreated cells
  reduction in cell number: 15%
[2]; [4]
  drug tolerant persister (DTP) cells remaining after initial erlotinib treatment: a reduction in the number of drug tolerant persister (DTP) cells
  initiation of cell growth inhibition: faster initiation of cell growth inhibition
  outgrowth of erlotinib-resistant cells: delayed/reduced outgrowth of erlotinib-resistant cells
[3]
  sensitivity of cell viability to treatment: temporal sensitivity

## C#Cc1cccc(Nc2ncnc3cc(OCCOC)c(OCCOC)cc23)c1 [erlotinib, reference compound]
[2]; PC9 cells
  GI90 dose: 1 µM
